Residue numbers refer to the chain shown, from its start.
Legend:
Test in all cases: E. coli hemG growth inhibition by herbicide, AtPPO1 variant
Type in all cases: cell-based
Conditions in all cases: read-out: percentage growth inhibition
AtPPO1 Y426M = molecular target: T1, AtPPO1 Y426M (Arabidopsis thaliana, UniProt P55826, Y426M)
T1 construct: expressed in transfected cells; host or cells: E. coli BL21(DE3) hemG (pET24a, T7 promoter)
T1 sequence (P55826 35-537 Y426M): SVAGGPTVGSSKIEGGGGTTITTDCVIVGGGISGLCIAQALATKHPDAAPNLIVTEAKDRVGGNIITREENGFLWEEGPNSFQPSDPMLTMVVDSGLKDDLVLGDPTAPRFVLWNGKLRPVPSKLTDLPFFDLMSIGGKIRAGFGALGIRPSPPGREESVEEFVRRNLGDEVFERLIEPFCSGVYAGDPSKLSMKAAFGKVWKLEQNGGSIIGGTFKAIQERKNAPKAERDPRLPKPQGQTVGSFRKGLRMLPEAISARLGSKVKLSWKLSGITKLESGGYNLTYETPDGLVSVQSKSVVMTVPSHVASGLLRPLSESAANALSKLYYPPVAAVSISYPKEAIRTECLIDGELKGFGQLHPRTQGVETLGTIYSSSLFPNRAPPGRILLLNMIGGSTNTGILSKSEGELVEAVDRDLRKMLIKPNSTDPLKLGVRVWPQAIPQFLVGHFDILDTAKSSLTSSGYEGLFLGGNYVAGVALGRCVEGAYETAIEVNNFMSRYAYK
In short: (§1)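 Read-out is OD600 at 24 h post inoculation, converted to percent growth inhibition relative to DMSO. The hemG-deleted BL21(DE3) host relied on the plasmid-borne AtPPO1 variant, induced with 0.1 mM IPTG, with 6.25 ppm herbicide 0 or E or 0.78 ppm herbicide B present at 37° C.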

AtPPO1 G481K = molecular target: T2, AtPPO1 G481K (Arabidopsis thaliana, UniProt P55826, G481K)
T2 construct: expressed in transfected cells; host or cells: E. coli BL21(DE3) hemG, pET24a plasmid
T2 sequence (P55826 35-537 G481K): T1 sequence (P55826 35-537 Y426M) with M392Y, G447K
In short: as §1

AtPPO1 G64A = molecular target: T3, AtPPO1 G64A (Arabidopsis thaliana, UniProt P55826, G64A)
T3 construct: expressed in transfected cells; host or cells: E. coli BL21(DE3) hemG (hemG replaced by CmR), pET24a plasmid
T3 sequence (P55826 35-537 G64A): T1 sequence (P55826 35-537 Y426M) with G30A, M392Y
In short: as §1

AtPPO1 K281E = molecular target: T4, AtPPO1 K281E (Arabidopsis thaliana, UniProt P55826, K281E)
T4 construct: expressed in transfected cells; host or cells: E. coli BL21(DE3) hemG (hemG replaced by CmR), pET24a plasmid
T4 sequence (P55826 35-537 K281E): T1 sequence (P55826 35-537 Y426M) with K247E, M392Y
In short: as §1

SMILES | inhibition at 0.78 ppm (AtPPO1 Y426M) [%] | inhibition at 0.78 ppm (AtPPO1 G481K) [%] | inhibition at 0.78 ppm (AtPPO1 G64A) [%] | inhibition at 0.78 ppm (AtPPO1 K281E) [%] | inhibition at 6.25 ppm (AtPPO1 Y426M) [%] | inhibition at 6.25 ppm (AtPPO1 G481K) [%] | inhibition at 6.25 ppm (AtPPO1 G64A) [%] | inhibition at 6.25 ppm (AtPPO1 K281E) [%]
C#CCN1C(=O)C(F)(F)Oc2cc(F)c(-n3c(=O)n(C)c(=S)n(C)c3=O)cc21 [Herbicide B, trifludimoxazin] | 7 | 10 | 36 | 37 | – | – | – | –
CCOC(=O)[C@]1(C)CC(c2cc(-n3c(=O)n(C)c(=S)n(C)c3=O)c(F)cc2Cl)=NO1 [Herbicide D, ethyl (5S)-3-[2-chloro-5-(3,5-dimethyl-2,6-dioxo-4-thioxo-1,3,5-triazinan-1-yl)-4-fluoro-phenyl]-5-methyl-4H-isoxazole-5-carboxylate] | – | – | – | – | 25 | 12 | 38 | 33
CC(C)N(C)S(=O)(=O)NC(=O)c1cc(-n2c(=O)cc(C(F)(F)F)n(C)c2=O)c(F)cc1Cl [Herbicide E, saflufenacil] | – | – | – | – | 17 | 0 | 34 | 61
